# In patent publication US6303591A, “21-hydroxy-6,19-oxidoprogesterone (21OH-6OP) and its use as medicament for treating excess of glucocorticoids” (Applied Research Systems ARS Holding NV, priority 1997, dated 2001):
# “Also recorded” adds a separate entry of the source.
# What was measured:
# [1] = test system: Na^+ retention (sodium-excretion rate); assay: Na^+ -retaining activity, adrenalectomized rats; assay type: in vivo, rat
# Experimental: FIG. 3: Biological Properties of 21OH-6OP: A) Glycogen storage in vivo: 100 μg steroid/100 g body weight of male rats were injected as indicated in Example 1. Liver glycogen was purified and quantified with Krisman's reagent (17). Controls were injected with vehicle. Results are expressed as means±SEM (n=6). (*): different from controls P<0.02. B) TAT induction in vitro: rat hepatocytes were incubated for 5 h in HAM-F12 medium in the presence of 100 nM steroid and TAT activity was measured. Results are expressed as percentage of enzyme activity (means±SEM, n=4) over controls incubated in the presence of vehicle. (*) different from controls P<0.01. C) Sodium-retaining activity: adrenalectomized rats were treated with the indicated dose of steroids. Results are expressed as the ratio of sodium-excretion rates of steroid-injected animals to the excretion rates of rats injected with vehicle.
# Bioassay : Liver glycogen deposition was measured on adrenalectoniized male Sprague-Dawley rats (180-220 g) as follows: steroids were dissolved in ethanol/propylene glycol/0.9% NaCl solution (3:3:34) and 100 μg steroid/l00 g body weight were injected i.m. the previous night. On the morning of the experiment this dose was reinjected intraperitoneally. Three hours later the rats were killed by cervical dislocation and livers were immediately removed. Glycogen purification and quantification were carried out according to Krisman's method (17). Na^+ -retaining properties were measured as described (5). Tyrosine aminotransferase (TAT) was induced in rat hepatocytes isolated by the procedure of Fry et al (18). TAT activity was determined according to Granner and Tomkins (19).
# [2] = target: T1, uterus PR (progesterone receptor) (Rattus norvegicus, UniProt Q63449); assay: (^3 H)-P4 binding to uterus cytosols (PR); conditions: uterus cytosol, 12 h at 0° C., 1 μM cortisol
# T1 sequence (Q63449 1-923): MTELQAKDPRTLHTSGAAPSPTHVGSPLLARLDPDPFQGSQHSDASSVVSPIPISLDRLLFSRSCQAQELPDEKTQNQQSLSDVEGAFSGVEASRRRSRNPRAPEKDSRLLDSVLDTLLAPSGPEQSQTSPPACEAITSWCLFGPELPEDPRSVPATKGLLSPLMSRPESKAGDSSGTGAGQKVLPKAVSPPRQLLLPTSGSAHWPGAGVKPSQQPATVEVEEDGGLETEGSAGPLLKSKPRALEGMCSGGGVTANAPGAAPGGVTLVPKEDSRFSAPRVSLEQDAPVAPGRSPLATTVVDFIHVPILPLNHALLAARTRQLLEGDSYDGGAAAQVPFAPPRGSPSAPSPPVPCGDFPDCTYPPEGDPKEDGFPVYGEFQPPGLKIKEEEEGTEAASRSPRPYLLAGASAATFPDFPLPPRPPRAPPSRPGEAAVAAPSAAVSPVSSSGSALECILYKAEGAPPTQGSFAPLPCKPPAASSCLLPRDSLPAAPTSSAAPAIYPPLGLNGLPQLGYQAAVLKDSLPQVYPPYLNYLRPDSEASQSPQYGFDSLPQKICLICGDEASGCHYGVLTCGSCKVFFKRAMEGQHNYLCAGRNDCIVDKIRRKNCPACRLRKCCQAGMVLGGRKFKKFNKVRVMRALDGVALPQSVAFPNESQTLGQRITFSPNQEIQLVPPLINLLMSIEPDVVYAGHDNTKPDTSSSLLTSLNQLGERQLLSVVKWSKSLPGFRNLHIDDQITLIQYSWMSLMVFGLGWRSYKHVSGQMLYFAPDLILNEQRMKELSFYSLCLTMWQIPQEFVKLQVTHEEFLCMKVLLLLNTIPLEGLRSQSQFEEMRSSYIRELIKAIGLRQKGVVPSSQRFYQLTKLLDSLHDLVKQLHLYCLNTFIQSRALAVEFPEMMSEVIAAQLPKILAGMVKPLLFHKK
# Experimental: (§1) Binding Assay: Adrenalectomized male Sprague-Dawley rats were bled to death by heart puncture. Cold 0.9% NaCI was injected profusely through the aorta until organs were completely blanched. Thymuses were used as a source of GR and kidneys as a source of MR. Homogenization and incubation conditions were performed as previously described, (14) and (15), respectively. Briefly, homogenates performed in cold TEGM buffer at pH 7.4 (0.1 M Tris-HCl, 10 mM EDTA, 10 mM α-mercaptoethanol, 20 mM Na2 MoO4, 25% glycerol, 0.1 mM PMSF, 2.0 TIU/ml aprotinin and 1 mg% Leupeptin) were centrifuged at 37,000 rev. for 30 min at 0° C. Supernatants from this centrifugation are referred to as "cytosol". […] (^3 H)-P4 binding to uterus PR was assayed on immature female rats according to Jordan et al (16).
# Relative binding affinity (RBA) for partially purified CBG was determined by steroid competition for (^3 H)-B binding as described previously (14).
# type II sites (GR) = target: T2, type II sites (GR) (Rattus norvegicus, UniProt P06536); assay: tracer binding (Scatchard) to kidney type II sites (GR); conditions: kidney cytosol, 2.5 μM 21OH-6OP
# T2 construct: type II receptors in kidney cytosols; from tissue; host or cells: kidney cytosol, adrenalectomized male Sprague-Dawley rats
# T2 sequence (P06536 1-795): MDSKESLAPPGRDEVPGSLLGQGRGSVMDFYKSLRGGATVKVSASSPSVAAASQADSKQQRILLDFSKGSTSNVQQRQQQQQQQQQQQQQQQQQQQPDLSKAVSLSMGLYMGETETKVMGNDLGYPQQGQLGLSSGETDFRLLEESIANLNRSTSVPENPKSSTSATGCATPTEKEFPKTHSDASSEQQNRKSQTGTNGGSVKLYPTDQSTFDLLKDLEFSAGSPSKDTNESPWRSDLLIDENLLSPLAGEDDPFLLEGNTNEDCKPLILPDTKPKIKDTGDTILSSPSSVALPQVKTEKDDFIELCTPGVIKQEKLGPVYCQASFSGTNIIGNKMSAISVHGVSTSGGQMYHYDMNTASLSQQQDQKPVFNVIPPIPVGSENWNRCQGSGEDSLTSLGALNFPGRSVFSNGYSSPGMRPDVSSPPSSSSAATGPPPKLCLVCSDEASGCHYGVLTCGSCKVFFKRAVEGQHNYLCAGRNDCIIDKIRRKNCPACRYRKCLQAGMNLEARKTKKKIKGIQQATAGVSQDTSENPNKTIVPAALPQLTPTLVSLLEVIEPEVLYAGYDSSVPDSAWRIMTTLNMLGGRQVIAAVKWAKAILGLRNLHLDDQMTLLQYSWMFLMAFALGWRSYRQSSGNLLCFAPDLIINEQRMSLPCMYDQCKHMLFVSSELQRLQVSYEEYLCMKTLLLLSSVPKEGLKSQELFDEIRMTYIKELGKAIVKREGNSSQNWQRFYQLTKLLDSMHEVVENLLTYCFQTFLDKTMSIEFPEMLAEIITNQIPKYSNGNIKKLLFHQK
# Experimental: as §1
# To study the binding of ALDO to kidney- MR without the competitive influence of the relatively more abundant GR, GR was removed with the specific ligand RU28362 (7).
# The calculated Kd for type I sites in different conditions ranges between 0.4 and 1 nM (Table 1) which is at least eighty times higher than the affinity for type II sites.
smiles,measurement,setting,value
"C[C@]12CC[C@H]3[C@@H](C[C@H]4OC[C@@]35CCC(=O)C=C45)[C@@H]1CC[C@@H]2C(=O)CO [21OH-6OP, 21-hydroxy-6,19-oxidoprogesterone]",Na^+ -retaining (MC) properties (in words),[1]; FIG. 3-C,almost devoid of MC properties; also recorded: then loosing activity at still higher doses
same,maximum Na^+ retention,"[1]; maximum of parabolic dose-response, at high doses",40%
same,displacement of (^3 H)-P4 from uterus receptors / cross-reaction with PR,[2],unable to cross-react with uterus-PR or kidney-MR; also recorded: does not cross-react with progesterone receptor; also recorded: as weakly as the negative control 17β-estradiol; also recorded: no ability to interact with MR nor PR; also recorded: does not cross-react with PR
same,masking of (^3 H)-ALDO cross-reaction with GR / block of type II receptors,type II sites (GR),able to mask the cross reaction of (^3 H)-ALDO with GR; also recorded: able to block type II receptors in kidney cytosols
